These results are taken from paper PMC5218480 (PLoS ONE, 2017).

The structures appear in SMILES notation.

This test concerns MV-4-11 cells. The test can be described thus: Gene expression microarray analysis (Affymetrix PrimeView) and GSEA. In kind it is cell-based, human. Also noted: RFU PODN (11730768_x_at) / Fold change /veh PODN (11730768_x_at) / RFU LINC00158 (11744669_a_at) / Fold change /veh LINC00158 (11744669_a_at) / RFU DUSP10 (11751237_a_at) / Fold change /veh DUSP10 (11751237_a_at) / RFU ID3 (11757404_x_at) / Fold change /veh ID3 (11757404_x_at) / RFU PLEKHG5 (11737974_s_at) / Fold change /veh PLEKHG5 (11737974_s_at) / RFU LRRC4B (11730491_at) / Fold change /veh LRRC4B (11730491_at) / RFU GIMAP4 (11747438_a_at) / Fold change /veh GIMAP4 (11747438_a_at) / RFU KRT8 (11758183_x_at) / Fold change /veh KRT8 (11758183_x_at) / RFU CNN1 (11734310_a_at) / Fold change /veh CNN1 (11734310_a_at) / RFU VPS37D (11726825_at) / Fold change /veh VPS37D (11726825_at) / RFU C10orf10 (11716522_x_at) / Fold change /veh C10orf10 (11716522_x_at) / RFU KIR2DL2 /// KIR2DL4 /// KIR2DL5A /// KIR2DL5B /// KIR2DS1 /// KIR2DS2 /// KIR2DS3 /// KIR2DS4 /// KIR3DL3 /// KIR3DL3 /// KIR3DS1 (11738374_at) / Fold change /veh KIR2DL2 /// KIR2DL4 /// KIR2DL5A /// KIR2DL5B /// KIR2DS1 /// KIR2DS2 /// KIR2DS3 /// KIR2DS4 /// KIR3DL3 /// KIR3DL3 /// KIR3DS1 (11738374_at) / RFU C1QL1 (11718748_at) / Fold change /veh C1QL1 (11718748_at) / RFU TMPRSS4 (11747572_a_at) / Fold change /veh TMPRSS4 (11747572_a_at) / RFU HAMP (11756126_x_at) / Fold change /veh HAMP (11756126_x_at) / RFU RNFT2 (11725882_a_at) / Fold change /veh RNFT2 (11725882_a_at) / RFU NR4A2 (11747474_a_at) / Fold change /veh NR4A2 (11747474_a_at) / RFU ABCC12 (11746883_a_at) / Fold change /veh ABCC12 (11746883_a_at) / RFU TMEM136 (11760407_x_at) / Fold change /veh TMEM136 (11760407_x_at) / RFU CLDN22 /// WWC2 (11732394_at) / Fold change /veh CLDN22 /// WWC2 (11732394_at) / RFU HLA-DPB1 (11760878_x_at) / Fold change /veh HLA-DPB1 (11760878_x_at) / RFU SPINT1 (11716480_a_at) / Fold change /veh SPINT1 (11716480_a_at) / RFU GAP43 (11754022_s_at) / Fold change /veh GAP43 (11754022_s_at) / RFU A4GNT (11735810_at) / Fold change /veh A4GNT (11735810_at) / RFU PRB3 (11715151_x_at) / Fold change /veh PRB3 (11715151_x_at) / RFU TUBB4B (11761932_at) / Fold change /veh TUBB4B (11761932_at) / RFU CAPN14 (11732068_a_at) / Fold change /veh CAPN14 (11732068_a_at) / RFU TMCC2 (11721928_a_at) / Fold change /veh TMCC2 (11721928_a_at) / RFU IRGQ (11745062_a_at) / Fold change /veh IRGQ (11745062_a_at) / RFU FAM174B (11720279_a_at) / Fold change /veh FAM174B (11720279_a_at) / RFU TMPRSS4 (11748680_a_at) / Fold change /veh TMPRSS4 (11748680_a_at) / RFU FAM212B (11763350_a_at) / Fold change /veh FAM212B (11763350_a_at) / RFU PLEKHG5 (11743358_a_at) / Fold change /veh PLEKHG5 (11743358_a_at) / RFU ZSCAN30 (11745921_a_at) / Fold change /veh ZSCAN30 (11745921_a_at) / RFU CMKLR1 (11741424_a_at) / Fold change /veh CMKLR1 (11741424_a_at) / RFU LOC101060620 /// MAPK8IP1 (11723275_at) / Fold change /veh LOC101060620 /// MAPK8IP1 (11723275_at) / RFU SPTSSB (11747773_x_at) / Fold change /veh SPTSSB (11747773_x_at) / RFU PRSS12 (11739890_at) / Fold change /veh PRSS12 (11739890_at) / RFU BIN1 (11741810_x_at) / Fold change /veh BIN1 (11741810_x_at) / RFU WNT11 (11732464_a_at) / Fold change /veh WNT11 (11732464_a_at) / RFU C10orf10 (11716521_a_at) / Fold change /veh C10orf10 (11716521_a_at) / RFU C5orf56 (11738089_at) / Fold change /veh C5orf56 (11738089_at) / RFU CYB561 (11721691_x_at) / Fold change /veh CYB561 (11721691_x_at) / RFU ANKRD19P (11752326_a_at) / Fold change /veh ANKRD19P (11752326_a_at) / RFU OR2T12 /// OR2T33 /// OR2T8 (11738714_s_at) / Fold change /veh OR2T12 /// OR2T33 /// OR2T8 (11738714_s_at) / RFU VCAN (11748164_a_at) / Fold change /veh VCAN (11748164_a_at) / RFU JSRP1 (11732532_at) / Fold change /veh JSRP1 (11732532_at) / RFU KRTAP10-11 (11738290_x_at) / Fold change /veh KRTAP10-11 (11738290_x_at) / RFU MYO3A (11730013_a_at) / Fold change /veh MYO3A (11730013_a_at) / RFU EBF3 (11725865_a_at) / Fold change /veh EBF3 (11725865_a_at) / RFU CAMK2N1 (11719241_x_at) / Fold change /veh CAMK2N1 (11719241_x_at) / RFU C5orf56 (11738088_a_at) / Fold change /veh C5orf56 (11738088_a_at) / RFU OLFML3 (11715873_a_at) / Fold change /veh OLFML3 (11715873_a_at) / RFU LOC100653217 /// NTM (11731650_a_at) / Fold change /veh LOC100653217 /// NTM (11731650_a_at) / RFU MAPK11 (11762145_a_at) / Fold change /veh MAPK11 (11762145_a_at) / RFU FIZ1 (11724087_x_at) / Fold change /veh FIZ1 (11724087_x_at) / RFU OASL (11726364_x_at) / Fold change /veh OASL (11726364_x_at) / RFU SOX15 (11748057_x_at) / Fold change /veh SOX15 (11748057_x_at) / RFU CD79A (11719716_a_at) / Fold change /veh CD79A (11719716_a_at) / RFU HIST1H1D (11736915_at) / Fold change /veh HIST1H1D (11736915_at) / RFU CASKIN2 (11723855_a_at) / Fold change /veh CASKIN2 (11723855_a_at) / RFU LOC730098 (11760151_x_at) / Fold change /veh LOC730098 (11760151_x_at) / RFU OR4N2 (11742367_at) / Fold change /veh OR4N2 (11742367_at) / RFU PRRT2 (11749266_a_at) / Fold change /veh PRRT2 (11749266_a_at) / RFU SNX32 (11753110_a_at) / Fold change /veh SNX32 (11753110_a_at) / RFU CDHR5 (11726645_a_at) / Fold change /veh CDHR5 (11726645_a_at) / RFU RCAN1 (11760418_a_at) / Fold change /veh RCAN1 (11760418_a_at) / RFU FAM167A (11723789_a_at) / Fold change /veh FAM167A (11723789_a_at) / RFU FAM26E (11764081_at) / Fold change /veh FAM26E (11764081_at) / RFU ISYNA1 (11749810_s_at) / Fold change /veh ISYNA1 (11749810_s_at) / RFU ACY1 (11761880_at) / Fold change /veh ACY1 (11761880_at) / RFU 11764098_at / Fold change /veh 11764098_at / RFU SAMD14 (11745864_x_at) / Fold change /veh SAMD14 (11745864_x_at) / RFU NPB (11741838_a_at) / Fold change /veh NPB (11741838_a_at) / RFU TMPRSS6 (11731388_a_at) / Fold change /veh TMPRSS6 (11731388_a_at) / RFU KRTAP10-2 (11738614_at) / Fold change /veh KRTAP10-2 (11738614_at) / RFU ARHGAP8 /// PRR5-ARHGAP8 (11727945_x_at) / Fold change /veh ARHGAP8 /// PRR5-ARHGAP8 (11727945_x_at) / RFU KRTAP5-7 /// NADSYN1 (11734609_at) / Fold change /veh KRTAP5-7 /// NADSYN1 (11734609_at) / RFU RASL12 (11751679_a_at) / Fold change /veh RASL12 (11751679_a_at) / RFU CDKN2B (11736163_a_at) / Fold change /veh CDKN2B (11736163_a_at) / RFU PRF1 (11729649_at) / Fold change /veh PRF1 (11729649_at) / RFU, ZNF638 /// ZNF638-IT1 / Fold change vs veh, ZNF638 /// ZNF638-IT1 / RFU, PANK3 / Fold change vs veh, PANK3 / RFU, SH3YL1 / Fold change vs veh, SH3YL1 / RFU, ZEB2 / Fold change vs veh, ZEB2 / RFU, NRIP1 / Fold change vs veh, NRIP1 / RFU, PTTG1IP / Fold change vs veh, PTTG1IP / RFU, CAPN2 / Fold change vs veh, CAPN2 / RFU, MED14 / Fold change vs veh, MED14 / RFU, SNORA58 / Fold change vs veh, SNORA58 / RFU, C1orf63 / Fold change vs veh, C1orf63 / RFU, LRRFIP1 / Fold change vs veh, LRRFIP1 / RFU, NDUFAF7 / Fold change vs veh, NDUFAF7 / RFU, SLC12A2 / Fold change vs veh, SLC12A2 / RFU, IBTK / Fold change vs veh, IBTK / RFU, ESF1 / Fold change vs veh, ESF1 / Fold change vs veh, TMEM50B / RFU, TAOK1 / Fold change vs veh, TAOK1 / RFU, ACBD3 / Fold change vs veh, ACBD3 / RFU, TMA16 / Fold change vs veh, TMA16 / RFU, RWDD3 / Fold change vs veh, RWDD3 / RFU, BCAT1 / Fold change vs veh, BCAT1 / RFU, EDEM3 / Fold change vs veh, EDEM3 / RFU, TMEM33 / Fold change vs veh, TMEM33 / RFU, WDR75 / Fold change vs veh, WDR75 / RFU, AHCTF1 / Fold change vs veh, AHCTF1 / RFU, TFRC / Fold change vs veh, TFRC / RFU, ZDHHC17 / Fold change vs veh, ZDHHC17 / RFU, NOM1 / Fold change vs veh, NOM1 / RFU, ARL8B / Fold change vs veh, ARL8B / RFU, ZBTB11 / Fold change vs veh, ZBTB11 / RFU, TAMM41 / Fold change vs veh, TAMM41 / RFU, KIAA1704 /// LOC100996395 / Fold change vs veh, KIAA1704 /// LOC100996395 / RFU, ING1 / Fold change vs veh, ING1 / RFU, TRMT61B / Fold change vs veh, TRMT61B / RFU, FUBP3 / Fold change vs veh, FUBP3 / RFU, TP53 / Fold change vs veh, TP53 / RFU, TNKS2 / Fold change vs veh, TNKS2 / RFU, ZFP14 / Fold change vs veh, ZFP14 / RFU, ACTR2 / Fold change vs veh, ACTR2 / RFU, PPP3R1 / Fold change vs veh, PPP3R1 / RFU, PIK3R1 / Fold change vs veh, PIK3R1 / RFU, HNRNPA1 / Fold change vs veh, HNRNPA1 / RFU, RNF170 / Fold change vs veh, RNF170 / RFU, ZNF28 / Fold change vs veh, ZNF28 / RFU, RNGTT / Fold change vs veh, RNGTT / RFU, OGT / Fold change vs veh, OGT / RFU, BRD1 / Fold change vs veh, BRD1 / RFU, MARS / Fold change vs veh, MARS / RFU, ZNF655 / Fold change vs veh, ZNF655 / RFU, FAHD1 / Fold change vs veh, FAHD1 / RFU, BDP1 / Fold change vs veh, BDP1 / RFU, LRRCC1 / Fold change vs veh, LRRCC1 / RFU, ARID1A / Fold change vs veh, ARID1A / RFU, ZNF146 / Fold change vs veh, ZNF146 / RFU, ZNF330 / Fold change vs veh, ZNF330 / RFU, GPN3 / Fold change vs veh, GPN3 / RFU, C9orf123 / Fold change vs veh, C9orf123 / RFU, N4BP2L2 / Fold change vs veh, N4BP2L2 / RFU, ARFIP1 / Fold change vs veh, ARFIP1 / RFU, FAM179B / Fold change vs veh, FAM179B / RFU, BCL10 / Fold change vs veh, BCL10 / RFU, UHRF1BP1L / Fold change vs veh, UHRF1BP1L / RFU, BET1 / Fold change vs veh, BET1 / RFU, CNOT2 / Fold change vs veh, CNOT2 / RFU, ZNF268 / Fold change vs veh, ZNF268 / Fold change vs veh, ZNF507 / RFU, DGCR2 / Fold change vs veh, DGCR2 / RFU, WDSUB1 / Fold change vs veh, WDSUB1 / Fold change vs veh, HSP90B1 /// MIR3652 / RFU, ADSS / Fold change vs veh, ADSS / RFU, GK / Fold change vs veh, GK / RFU, ZNF148 / Fold change vs veh, ZNF148 / RFU, TAF9 / Fold change vs veh, TAF9 / RFU, SLC1A5 / Fold change vs veh, SLC1A5 / RFU, SLMO2 / Fold change vs veh, SLMO2 / RFU, ABCC4 / Fold change vs veh, ABCC4 / RFU, LOC101060439 /// RAP1B / Fold change vs veh, LOC101060439 /// RAP1B / RFU, RFX7 / Fold change vs veh, RFX7 / RFU, GTPBP10 / Fold change vs veh, GTPBP10 / RFU, CNEP1R1 / Fold change vs veh, CNEP1R1 / RFU, BIVM-ERCC5 /// ERCC5 / Fold change vs veh, BIVM-ERCC5 /// ERCC5 / RFU, ILF3 / Fold change vs veh, ILF3 / RFU 11762660_at / Fold change /veh 11762660_at / RFU VCAN (11757783_s_at) / Fold change /veh VCAN (11757783_s_at) / RFU DDX43 (11728927_at) / Fold change /veh DDX43 (11728927_at) / RFU KRT8 (11758188_x_at) / Fold change /veh KRT8 (11758188_x_at) / RFU NKD1 (11759106_at) / Fold change /veh NKD1 (11759106_at) / RFU SRD5A1 (11742802_a_at) / Fold change /veh SRD5A1 (11742802_a_at) / RFU TPSAB1 /// TPSB2 (11721975_s_at) / Fold change /veh TPSAB1 /// TPSB2 (11721975_s_at) / RFU GSTM3 (11746129_a_at) / Fold change /veh GSTM3 (11746129_a_at) / RFU IL23R (11737362_x_at) / Fold change /veh IL23R (11737362_x_at) / RFU TMEM51 (11727254_a_at) / Fold change /veh TMEM51 (11727254_a_at) / RFU PIWIL2 (11732686_x_at) / Fold change /veh PIWIL2 (11732686_x_at) / RFU ORM1 (11744905_x_at) / Fold change /veh ORM1 (11744905_x_at) / RFU CCDC152 (11743942_at) / Fold change /veh CCDC152 (11743942_at) / RFU ECM1 (11717891_a_at) / Fold change /veh ECM1 (11717891_a_at) / RFU IL23R (11748794_a_at) / Fold change /veh IL23R (11748794_a_at) / RFU TNFAIP8L3 (11732012_x_at) / Fold change /veh TNFAIP8L3 (11732012_x_at) / RFU MBOAT4 (11741988_at) / Fold change /veh MBOAT4 (11741988_at) / RFU 11764193_at / Fold change /veh 11764193_at / RFU TMEM53 (11763286_at) / Fold change /veh TMEM53 (11763286_at) / RFU MAGEB2 (11727129_at) / Fold change /veh MAGEB2 (11727129_at) / RFU TMEM200A (11744735_a_at) / Fold change /veh TMEM200A (11744735_a_at) / RFU CCDC152 (11751479_a_at) / Fold change /veh CCDC152 (11751479_a_at) / RFU FAM211A (11726209_a_at) / Fold change /veh FAM211A (11726209_a_at) / RFU RGS16 (11746705_a_at) / Fold change /veh RGS16 (11746705_a_at) / RFU VCAN (11755009_s_at) / Fold change /veh VCAN (11755009_s_at) / RFU RHOB (11743442_s_at) / Fold change /veh RHOB (11743442_s_at) / RFU RGS16 (11720943_a_at) / Fold change /veh RGS16 (11720943_a_at) / RFU RGS16 (11720944_at) / Fold change /veh RGS16 (11720944_at) / RFU, VPS4B / Fold change vs veh, VPS4B / RFU, CREB1 / Fold change vs veh, CREB1 / RFU, DNAJC13 / Fold change vs veh, DNAJC13 / RFU, GNAQ / Fold change vs veh, GNAQ / RFU, CDK5R1 / Fold change vs veh, CDK5R1 / RFU, ZRANB3 / Fold change vs veh, ZRANB3 / RFU, CUL4A / Fold change vs veh, CUL4A / RFU, CCNY / Fold change vs veh, CCNY / RFU, UFL1 / Fold change vs veh, UFL1 / RFU, COG3 / Fold change vs veh, COG3 / RFU, DIAPH2 / Fold change vs veh, DIAPH2 / RFU, SKA2 / Fold change vs veh, SKA2 / RFU, AFF3 / Fold change vs veh, AFF3 / RFU, LMF1 / Fold change vs veh, LMF1 / RFU, IPO11 / Fold change vs veh, IPO11 / RFU, DFFB / Fold change vs veh, DFFB / RFU, FOXP1 / Fold change vs veh, FOXP1 / RFU, CARD8 / Fold change vs veh, CARD8 / RFU, STRN3 / Fold change vs veh, STRN3 / RFU, ADK / Fold change vs veh, ADK / RFU, RASSF2 / Fold change vs veh, RASSF2 / RFU, WIPF1 / Fold change vs veh, WIPF1 / RFU, LARP1B / Fold change vs veh, LARP1B / RFU, RASA1 / Fold change vs veh, RASA1 / RFU, RB1 / Fold change vs veh, RB1 / RFU, PPFIA1 / Fold change vs veh, PPFIA1 / RFU, MAT2A / Fold change vs veh, MAT2A / RFU, CCT5 / Fold change vs veh, CCT5 / RFU, WDR92 / Fold change vs veh, WDR92 / RFU, CUX1 / Fold change vs veh, CUX1 / RFU, TTC7A / Fold change vs veh, TTC7A / RFU, TMEM135 / Fold change vs veh, TMEM135 / RFU, DEPTOR / Fold change vs veh, DEPTOR / RFU, CPM / Fold change vs veh, CPM / RFU, DNAJB6 / Fold change vs veh, DNAJB6 / RFU, CACNA2D3 / Fold change vs veh, CACNA2D3 / RFU, DTX4 / Fold change vs veh, DTX4 / RFU, TFCP2 / Fold change vs veh, TFCP2 / RFU, GMCL1 /// GMCL1P1 / Fold change vs veh, GMCL1 /// GMCL1P1 / RFU, AEBP2 / Fold change vs veh, AEBP2 / RFU, SNHG1 /// SNORD22 /// SNORD25 /// SNORD26 /// SNORD27 /// SNORD28 /// SNORD29 /// SNORD31 / Fold change vs veh, SNHG1 /// SNORD22 /// SNORD25 /// SNORD26 /// SNORD27 /// SNORD28 /// SNORD29 /// SNORD31 / Fold change (Aza/veh), C12orf56 (ProbeSet 11735607_a_at) / Fold change (ACY-1035/veh), C12orf56 (ProbeSet 11735607_a_at) / Fold change (Aza/veh), FGFR1OP (ProbeSet 11751329_s_at) / Fold change (ACY-1035/veh), FGFR1OP (ProbeSet 11751329_s_at) / Fold change (Aza/veh), VPS36 (ProbeSet 11739960_a_at) / Fold change (ACY-1035/veh), VPS36 (ProbeSet 11739960_a_at) / RFU SYPL1 (11715823_x_at) / Fold change /veh SYPL1 (11715823_x_at) / RFU IGFBP7 (11715501_s_at) / Fold change /veh IGFBP7 (11715501_s_at) / RFU REEP3 (11722064_at) / Fold change /veh REEP3 (11722064_at) / RFU IGLL1 (11728026_x_at) / Fold change /veh IGLL1 (11728026_x_at): dose or concentration left out as unconfirmed. Conditions: MV-4-11 cells, 48 hours.

Consider `Nc1ccc(-c2cccs2)cc1NC(=O)c1ccc2c(c1)cc(C1CC1)n2CCN1CCOCC1` [ACY-1035], for which the “Fold change /veh IGLL1 (11728026_x_at)” value is 0.28.
